# In ChEMBL document CHEMBL1641457, “The synthesis and biological evaluation of 1-C-alkyl-L-arabinoiminofuranoses, a novel class of α-glucosidase inhibitors” (Bioorg Med Chem Lett, 2011):
# Columns and labels:
# [1] = molecular target: T1, Sucrase-isomaltase, intestinal (Rattus norvegicus, UniProt P23739); assay: Inhibition of Wistar rat small intestine isomaltase after 30 mins
# [2] = molecular target: T1, Sucrase-isomaltase, intestinal; assay: Inhibition of Wistar rat small intestine sucrase after 30 mins
# Rattus norvegicus = organism: Rattus norvegicus; assay: Inhibition of Wistar rat small intestine cellobiase at 1000 uM after 30 mins
# [3] = molecular target: Lactase/phlorizin hydrolase (Rattus norvegicus) (UniProt Q02401); assay: Inhibition of Wistar rat small intestine lactase at 1000 uM after 30 mins
# [4] = molecular target: Sucrase-isomaltase, intestinal (Rattus norvegicus) (UniProt P23739); assay: Inhibition of Wistar rat small intestine isomaltase at 1000 uM after 30 mins
# [5] = molecular target: Lysosomal alpha-glucosidase (Rattus norvegicus) (UniProt Q6P7A9); conditions: Wistar, 1000 uM
# Sequence of Lysosomal alpha-glucosidase (Rattus norvegicus) (Q6P7A9 whole entry): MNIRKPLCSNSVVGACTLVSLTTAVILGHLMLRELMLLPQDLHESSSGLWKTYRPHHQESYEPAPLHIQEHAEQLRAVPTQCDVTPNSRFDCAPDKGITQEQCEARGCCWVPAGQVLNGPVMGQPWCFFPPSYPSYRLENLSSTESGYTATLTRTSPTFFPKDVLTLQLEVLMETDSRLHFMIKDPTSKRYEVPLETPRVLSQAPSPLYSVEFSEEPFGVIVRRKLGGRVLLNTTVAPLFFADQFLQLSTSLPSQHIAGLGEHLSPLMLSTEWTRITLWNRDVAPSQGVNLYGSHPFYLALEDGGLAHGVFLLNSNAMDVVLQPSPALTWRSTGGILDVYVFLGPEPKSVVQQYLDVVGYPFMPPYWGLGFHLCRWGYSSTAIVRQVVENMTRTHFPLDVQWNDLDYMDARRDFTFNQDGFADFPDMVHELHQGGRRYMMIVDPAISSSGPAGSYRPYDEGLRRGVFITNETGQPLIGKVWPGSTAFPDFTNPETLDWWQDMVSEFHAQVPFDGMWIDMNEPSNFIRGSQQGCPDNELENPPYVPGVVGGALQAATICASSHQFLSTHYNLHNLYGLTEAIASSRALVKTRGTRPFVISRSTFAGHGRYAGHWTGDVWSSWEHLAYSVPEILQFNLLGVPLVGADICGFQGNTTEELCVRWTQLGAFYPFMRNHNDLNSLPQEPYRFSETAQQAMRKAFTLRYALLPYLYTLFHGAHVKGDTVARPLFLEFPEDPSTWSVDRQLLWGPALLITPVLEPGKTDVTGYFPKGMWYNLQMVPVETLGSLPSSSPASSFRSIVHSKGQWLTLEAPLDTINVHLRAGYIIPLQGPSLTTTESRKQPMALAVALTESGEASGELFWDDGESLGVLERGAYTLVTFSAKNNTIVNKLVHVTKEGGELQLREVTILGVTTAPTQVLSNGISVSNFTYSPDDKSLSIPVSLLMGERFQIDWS
# Description: Inhibition of Wistar rat small intestine maltase at 1000 uM after 30 mins
# Sequence of Lactase/phlorizin hydrolase (Rattus norvegicus) (Q02401 868-1928 limits assumed): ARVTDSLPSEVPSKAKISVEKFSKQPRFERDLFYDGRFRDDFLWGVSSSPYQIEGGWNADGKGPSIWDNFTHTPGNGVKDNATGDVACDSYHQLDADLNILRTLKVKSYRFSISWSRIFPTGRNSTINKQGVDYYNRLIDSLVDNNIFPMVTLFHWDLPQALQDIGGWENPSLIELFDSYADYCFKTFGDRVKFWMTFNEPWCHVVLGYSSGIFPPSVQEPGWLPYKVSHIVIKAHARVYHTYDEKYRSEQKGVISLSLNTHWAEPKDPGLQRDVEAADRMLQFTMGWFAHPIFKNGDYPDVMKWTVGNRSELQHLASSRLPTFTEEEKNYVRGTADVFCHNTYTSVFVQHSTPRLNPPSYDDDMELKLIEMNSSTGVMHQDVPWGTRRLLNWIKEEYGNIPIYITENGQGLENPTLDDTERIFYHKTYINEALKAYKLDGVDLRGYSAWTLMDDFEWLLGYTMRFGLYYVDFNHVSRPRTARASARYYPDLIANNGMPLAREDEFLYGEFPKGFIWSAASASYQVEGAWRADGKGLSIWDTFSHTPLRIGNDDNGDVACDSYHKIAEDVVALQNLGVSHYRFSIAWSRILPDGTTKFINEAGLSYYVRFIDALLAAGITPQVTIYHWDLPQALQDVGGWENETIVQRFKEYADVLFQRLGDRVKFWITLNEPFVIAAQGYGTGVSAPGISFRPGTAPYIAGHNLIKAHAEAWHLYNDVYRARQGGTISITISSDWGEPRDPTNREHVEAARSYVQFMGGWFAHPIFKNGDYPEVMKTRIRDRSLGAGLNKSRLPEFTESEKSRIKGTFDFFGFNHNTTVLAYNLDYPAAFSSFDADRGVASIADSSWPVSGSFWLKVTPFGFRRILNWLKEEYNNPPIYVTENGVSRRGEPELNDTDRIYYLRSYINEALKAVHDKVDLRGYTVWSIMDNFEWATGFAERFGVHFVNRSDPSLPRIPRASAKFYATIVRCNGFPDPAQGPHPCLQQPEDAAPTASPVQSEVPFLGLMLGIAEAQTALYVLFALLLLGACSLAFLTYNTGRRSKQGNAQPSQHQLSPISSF
# T1 sequence (P23739 1-1013 limits assumed): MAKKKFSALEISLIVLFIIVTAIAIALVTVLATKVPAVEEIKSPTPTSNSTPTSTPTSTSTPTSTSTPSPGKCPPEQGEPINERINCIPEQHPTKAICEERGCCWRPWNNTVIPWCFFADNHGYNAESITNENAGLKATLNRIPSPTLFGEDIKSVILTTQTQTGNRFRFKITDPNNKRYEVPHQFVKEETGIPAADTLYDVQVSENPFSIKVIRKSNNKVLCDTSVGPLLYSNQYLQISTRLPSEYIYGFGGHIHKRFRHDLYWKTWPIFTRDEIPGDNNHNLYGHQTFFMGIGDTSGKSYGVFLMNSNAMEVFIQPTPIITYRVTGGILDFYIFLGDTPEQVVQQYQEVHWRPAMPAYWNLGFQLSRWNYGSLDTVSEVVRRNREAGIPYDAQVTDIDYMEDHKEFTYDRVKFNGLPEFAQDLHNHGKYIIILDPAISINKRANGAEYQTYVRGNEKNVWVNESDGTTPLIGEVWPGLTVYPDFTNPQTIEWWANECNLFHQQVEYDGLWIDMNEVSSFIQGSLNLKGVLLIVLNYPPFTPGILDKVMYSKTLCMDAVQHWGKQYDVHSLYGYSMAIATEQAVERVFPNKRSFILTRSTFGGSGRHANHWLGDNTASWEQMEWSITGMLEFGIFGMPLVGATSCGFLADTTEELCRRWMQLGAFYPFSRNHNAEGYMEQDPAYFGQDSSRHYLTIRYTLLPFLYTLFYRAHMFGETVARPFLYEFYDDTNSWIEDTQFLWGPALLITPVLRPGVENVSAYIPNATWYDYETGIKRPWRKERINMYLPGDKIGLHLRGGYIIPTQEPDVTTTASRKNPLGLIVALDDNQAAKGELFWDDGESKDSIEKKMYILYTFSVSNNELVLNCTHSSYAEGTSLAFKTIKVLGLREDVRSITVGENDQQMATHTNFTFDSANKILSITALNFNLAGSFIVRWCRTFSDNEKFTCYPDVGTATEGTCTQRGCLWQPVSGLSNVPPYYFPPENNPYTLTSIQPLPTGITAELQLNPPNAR
# T1 sequence (P23739 1014-1841 limits assumed): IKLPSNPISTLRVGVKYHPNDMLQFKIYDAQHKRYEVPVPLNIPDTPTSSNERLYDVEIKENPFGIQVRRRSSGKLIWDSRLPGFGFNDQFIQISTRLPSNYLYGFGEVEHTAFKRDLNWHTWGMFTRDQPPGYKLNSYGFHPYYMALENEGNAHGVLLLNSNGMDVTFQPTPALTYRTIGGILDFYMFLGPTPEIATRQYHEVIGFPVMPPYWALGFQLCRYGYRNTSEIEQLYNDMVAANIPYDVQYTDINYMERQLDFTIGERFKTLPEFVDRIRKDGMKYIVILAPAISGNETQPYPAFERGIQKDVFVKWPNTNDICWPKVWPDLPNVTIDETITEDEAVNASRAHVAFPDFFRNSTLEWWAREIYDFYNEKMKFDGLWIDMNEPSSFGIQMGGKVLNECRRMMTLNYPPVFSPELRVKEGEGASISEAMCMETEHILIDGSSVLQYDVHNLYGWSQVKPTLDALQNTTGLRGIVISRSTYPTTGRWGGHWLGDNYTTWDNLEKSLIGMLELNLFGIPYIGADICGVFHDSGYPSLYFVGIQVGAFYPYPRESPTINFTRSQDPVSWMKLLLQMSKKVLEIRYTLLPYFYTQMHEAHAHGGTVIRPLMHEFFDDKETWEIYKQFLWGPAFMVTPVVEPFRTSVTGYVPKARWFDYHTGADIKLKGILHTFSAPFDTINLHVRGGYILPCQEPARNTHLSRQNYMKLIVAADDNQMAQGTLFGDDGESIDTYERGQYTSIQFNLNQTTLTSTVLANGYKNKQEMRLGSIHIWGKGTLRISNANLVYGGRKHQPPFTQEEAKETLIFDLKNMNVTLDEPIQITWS
# Sequence of Sucrase-isomaltase, intestinal (Rattus norvegicus) (P23739 1-1013 limits assumed): as the sequence (P23739 1-1013 limits assumed) above
# Sequence of Sucrase-isomaltase, intestinal (Rattus norvegicus) (P23739 1014-1841 limits assumed): as the sequence (P23739 1014-1841 limits assumed) above
IC50 [1] [µM],IC50 [2] [µM],inhibition (Rattus norvegicus) [%],inhibition [3] [%],inhibition [4] [%],inhibition [5] [%],SMILES
606,1.7,< 50,< 50,–,–,CCCCCCCCCC[C@@H]1N[C@@H](CO)[C@H](O)[C@H]1O
–,13,< 50,< 50,< 50,–,CCCCCCCCCCC[C@@H]1N[C@@H](CO)[C@H](O)[C@H]1O
–,–,< 50,< 50,< 50,–,C[C@H]1O[C@H](O[C@H]2[C@H](O)[C@@H](O)[C@@H](O[C@H]3[C@H](O)[C@@H](O)C(O)O[C@@H]3CO)O[C@@H]2CO)[C@H](O)[C@@H](O)[C@@H]1N[C@H]1C=C(CO)[C@@H](O)[C@H](O)[C@H]1O (some centres not stated)
–,–,< 50,< 50,–,–,OCCN1C[C@H](O)[C@@H](O)[C@H](O)[C@H]1CO [MIGLITOL]
11,0.68,< 50,< 50,–,–,CC[C@@H]1N[C@@H](CO)[C@H](O)[C@H]1O
11,0.11,< 50,< 50,–,–,CCCCCC[C@@H]1N[C@@H](CO)[C@H](O)[C@H]1O
47,0.26,< 50,< 50,–,–,CCC[C@@H]1N[C@@H](CO)[C@H](O)[C@H]1O
–,590,< 50,< 50,< 50,–,CCCCCCCC[C@H]1N[C@@H](CO)[C@H](O)[C@H]1O
16,0.24,< 50,< 50,–,–,CCCCCCC[C@@H]1N[C@@H](CO)[C@H](O)[C@H]1O
18,0.19,< 50,< 50,–,–,CCCCC[C@@H]1N[C@@H](CO)[C@H](O)[C@H]1O
75,0.45,< 50,< 50,–,–,CCCCCCCC[C@@H]1N[C@@H](CO)[C@H](O)[C@H]1O
5.2,0.37,< 50,< 50,–,–,OCC(CO)N[C@H]1C[C@](O)(CO)[C@@H](O)[C@H](O)[C@H]1O [VOGLIBOSE]
–,8.8,< 50,< 50,< 50,–,CCCC[C@H]1[C@H](O)[C@@H](O)[C@H](CO)N1CCCC
171,1.4,< 50,< 50,–,–,CCCCCCCCC[C@@H]1N[C@@H](CO)[C@H](O)[C@H]1O
–,392,< 50,< 50,< 50,< 50,CCCC[C@H]1N[C@@H](CO)[C@H](O)[C@H]1O
4.7,0.032,< 50,< 50,–,–,CCCC[C@@H]1N[C@@H](CO)[C@H](O)[C@H]1O
